The record followed here is ChEMBL document CHEMBL4602617, “Discovery and optimization of heteroaryl piperazines as potent and selective PI3Kδ inhibitors” (Bioorg Med Chem Lett, 2020).

Data set [1] can be described thus: Clearance in rat liver microsomes. As to conditions: read-out: CLH. Type of data set: ADME, Microsome. For orientation: Microsomes from liver hold many membrane-bound enzymes, among them those of drug oxidation.
Data set [2] concerns the target T1, Phosphatidylinositol 4,5-bisphosphate 3-kinase catalytic subunit delta isoform (Homo sapiens, UniProt O00329).
T1 sequence (O00329 whole entry): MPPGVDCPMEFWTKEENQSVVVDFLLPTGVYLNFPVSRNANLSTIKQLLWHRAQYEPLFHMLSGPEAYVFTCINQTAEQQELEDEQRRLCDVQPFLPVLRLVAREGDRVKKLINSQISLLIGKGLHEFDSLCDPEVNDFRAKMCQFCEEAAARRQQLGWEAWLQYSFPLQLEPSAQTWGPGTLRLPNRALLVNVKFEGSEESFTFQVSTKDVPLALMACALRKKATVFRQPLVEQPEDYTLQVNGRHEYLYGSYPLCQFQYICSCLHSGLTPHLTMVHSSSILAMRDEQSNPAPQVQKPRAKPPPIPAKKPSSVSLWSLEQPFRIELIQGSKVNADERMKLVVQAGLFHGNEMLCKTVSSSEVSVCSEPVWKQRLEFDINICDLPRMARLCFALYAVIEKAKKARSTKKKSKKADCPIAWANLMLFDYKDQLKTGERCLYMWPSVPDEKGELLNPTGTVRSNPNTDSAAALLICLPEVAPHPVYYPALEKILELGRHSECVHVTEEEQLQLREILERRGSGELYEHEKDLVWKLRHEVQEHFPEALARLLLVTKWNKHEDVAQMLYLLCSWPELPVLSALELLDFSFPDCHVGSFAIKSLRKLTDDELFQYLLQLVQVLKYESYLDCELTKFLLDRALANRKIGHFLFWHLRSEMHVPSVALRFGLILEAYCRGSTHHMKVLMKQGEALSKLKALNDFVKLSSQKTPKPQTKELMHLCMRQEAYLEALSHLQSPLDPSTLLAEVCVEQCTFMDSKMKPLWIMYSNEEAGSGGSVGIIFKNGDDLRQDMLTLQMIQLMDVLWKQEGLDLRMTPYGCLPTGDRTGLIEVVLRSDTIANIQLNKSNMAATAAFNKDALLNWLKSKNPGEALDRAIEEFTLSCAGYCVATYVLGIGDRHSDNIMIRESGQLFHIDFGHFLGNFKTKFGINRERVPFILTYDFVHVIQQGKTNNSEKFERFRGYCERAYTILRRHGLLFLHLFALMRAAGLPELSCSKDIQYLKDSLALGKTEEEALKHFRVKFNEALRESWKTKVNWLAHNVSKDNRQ
The experiment in a line: Inhibition of PI3K delta in human whole blood assessed as inhibition of anti-IgE-stimulated CysLt release in basophils preincubated for 30 mins followed by anti-IgE stimulation and measured after 20 mins. It is filed as tissue-based.

Data set [3] in a line: Half life in Wistar Han rat at 0.05 mg/kg, iv administered as cassette dose. Type of data set: ADME, organism-based. To be noted: in vivo.
A short description of data set [4]: Protein binding in Wistar Han rat plasma at 0.05 mg/kg, iv administered as cassette dose. Type of data set: ADME, organism-based. To be noted: read-out: PPB (converted).
For data set [5], the species on record is Homo sapiens. The experiment in a line: Selectivity index, ratio IC50 for inhibition of recombinant human full-length N-terminal His6-tagged p110alpha/untagged full-length p85alpha expressed in baculovirus infected Sf21 cells to ratio IC50 for inhibition of recombinant human full-length N-terminal GST-tagged p110delta/untagged full-length p85alpha expressed in baculovirus infected Sf21 cells.

The nature of data set [6]: Volume of drug distribution in Wistar Han rat at 0.05 mg/kg, iv administered as cassette dose. It is filed as ADME, organism-based. As to conditions: in vivo.
The species named for data set [7] is Homo sapiens. The experiment in a line: Selectivity index, ratio IC50 for inhibition of recombinant human full-length N-terminal His6-tagged p110beta/untagged full-length p85alpha expressed in baculovirus infected Sf21 cells to ratio IC50 for inhibition of recombinant human full-length N-terminal GST-tagged p110delta/untagged full-length p85alpha expressed in baculovirus infected Sf21 cells.

For data set [8], the target named is PI3-kinase p110-delta/p85-alpha (Homo sapiens, UniProt O00329). Description: Inhibition of recombinant human full-length N-terminal GST-tagged p110delta/untagged full-length p85alpha expressed in baculovirus infected Sf21 cells using PIP2 as substrate preincubated for 15 mins followed by substrate addition and measured after 1 hr by HTRF assay. For orientation: TR-FRET usually uses a lanthanide donor and a delayed reading to cut background.

Data set [9] in a line: Clearance in human liver microsomes. Type of data set: ADME, Microsome. As to conditions: read-out: CLH.
A short description of data set [10]: Clearance in Wistar Han rat plasma at 0.05 mg/kg, iv administered as cassette dose. It is filed as ADME, organism-based.
A short description of data set [11]: Distribution coefficient, logD of compound by HPLC analysis. Type of data set: physicochemical. As to conditions: octanol/water.
The species entered for data set [12] is Homo sapiens. Description: Selectivity index, ratio IC50 for inhibition of recombinant human N-terminal His6-tagged full-length p120gamma expressed in Sf21 insect cells to ratio IC50 for inhibition of recombinant human full-length N-terminal GST-tagged p110delta/untagged full-length p85alpha expressed in baculovirus infected Sf21 cells.
The nature of data set [13]: Unbound clearance in Wistar Han rat at 0.05 mg/kg, iv administered as cassette dose. It is filed as ADME, organism-based. To be noted: in vivo.
The nature of data set [14]: Intrinsic clearance in human hepatocytes. It is filed as ADME, cell-based, Hepatocyte. To be noted: read-out: CLH.
Data set [15] in a line: Intrinsic clearance in rat hepatocytes. As to conditions: read-out: CLH. Type of data set: ADME, cell-based, Hepatocyte.

As a reminder, the IC50 is the concentration needed to halve the response being measured. One may read the half-life as how long it takes for the measured level to halve. Low readings indicate fast loss, high ones slow loss. As usually defined, the Vd is the apparent volume that relates the amount in the body to the concentration in plasma or blood. Higher therefore signals extensive tissue distribution. The clearance is a measure of how efficiently the substance is removed, as volume per time. The low end stands for a low capacity for elimination, the high end for a high capacity for elimination. By logD is commonly meant lipophilicity at a set pH, counting ionised and neutral species. A higher logD goes with higher lipophilicity.

A value given as a limit tells only on which side of the number the result lay.

PI3-kinase p110-delta/p85-alpha, sequence (P27986 whole entry, one chain of several): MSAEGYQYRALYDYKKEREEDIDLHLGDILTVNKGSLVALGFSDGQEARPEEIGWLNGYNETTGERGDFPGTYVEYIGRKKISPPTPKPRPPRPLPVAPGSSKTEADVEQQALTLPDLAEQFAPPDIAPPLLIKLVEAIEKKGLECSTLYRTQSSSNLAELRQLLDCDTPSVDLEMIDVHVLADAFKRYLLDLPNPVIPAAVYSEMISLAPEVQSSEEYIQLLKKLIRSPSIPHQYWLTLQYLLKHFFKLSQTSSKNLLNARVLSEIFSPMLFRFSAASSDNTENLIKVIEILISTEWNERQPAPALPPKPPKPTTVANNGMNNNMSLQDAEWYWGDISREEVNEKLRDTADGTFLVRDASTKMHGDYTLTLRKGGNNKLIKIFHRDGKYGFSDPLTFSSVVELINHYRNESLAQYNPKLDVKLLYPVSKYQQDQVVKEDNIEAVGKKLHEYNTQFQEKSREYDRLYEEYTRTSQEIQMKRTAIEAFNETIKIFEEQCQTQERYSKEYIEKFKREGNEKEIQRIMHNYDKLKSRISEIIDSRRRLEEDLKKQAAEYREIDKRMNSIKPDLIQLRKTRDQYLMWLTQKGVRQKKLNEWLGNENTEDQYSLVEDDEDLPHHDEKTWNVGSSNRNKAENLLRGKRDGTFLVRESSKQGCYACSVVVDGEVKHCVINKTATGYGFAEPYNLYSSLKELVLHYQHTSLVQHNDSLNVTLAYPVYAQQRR

Regarding `Cn1cc(-c2ncc(C#N)c(N3C[C@@H]4C[C@H]3CN4c3cccc(F)c3)n2)cn1`, the values for the CLint scaled in data set [1] and in [9] were 1080 mL/min/kg and 76 mL/min/kg, respectively. Moreover, the half-maximal inhibitory concentration (IC50) in data set [2] was 2960 nM; in data set [8], 31 nM. Besides, the half-life in data set [3] is 66 min. Moreover, the fraction unbound in [4] is 0.014. The Ratio IC50 is 160 in [5], 308 in data set [7] and more than 407 in data set [12]. Moreover, in data set [6], the volume of distribution (Vd) was determined as 4.7 L/kg. This compound came in with a clearance in [10] of 68 mL/min/kg. The same compound came in with a log distribution coefficient (logD) in [11] of 3.1. Also, in data set [13], the CL free came to 4857 mL/min/kg.
As to `Cn1cc(-c2ncc(C#N)c(N3C[C@@H]4C[C@H]3CN4C(=O)C3CC3)n2)cn1`, the CLint scaled is less than 36 mL/min/kg in [1] and less than 16 mL/min/kg in [9]. The IC50 in [2] was 258 nM; in data set [8], 161 nM. The same compound had a half-life in data set [3] of 12 min. For the same compound, in [4], the fraction unbound was 0.54. The Ratio IC50 is more than 78 in [5], 78 in data set [7] and 78 in [12]. This compound gave a Vd in [6] of 0.9 L/kg. The clearance in [10] came to 46 mL/min/kg. This compound yielded a logD in data set [11] of 1.1. For the same compound, the CL free in data set [13] was found to be 85 mL/min/kg.
With `N#Cc1cnc(-c2cccnc2)nc1N1C[C@@H]2C[C@H]1CN2c1cccc(F)c1`, the half-life in [3] was 36 min. The Ratio IC50 in data set [5], in [7] and in data set [12] was more than 27 throughout. Besides, in data set [6], the Vd came to 3.6 L/kg. Further, the IC50 in [8] was 364 nM. Also, the CLint scaled in data set [14] stood at 69 mL/min/kg; in [15], 234 mL/min/kg. The compound further had a clearance in [10] of 90 mL/min/kg. In [11], this compound gave a logD of 3.43.
